# Source: patent publication US9682980B2, “Positive allosteric modulators of mGluR2” (BRISTOL-MYERS SQUIBB COMPANY, priority 2012, dated 2017)
# Molecular target: human mGluR2 (Homo sapiens (Human), UniProt Q14416)
# Assay: MGluR2 cAMP assay
# Assay type: cell-based
# Settings: HEK293 cells clonally expressing human mGluR2, 1 μM forskolin, 1 μM LY-341495
# Procedure: Clonally expressed human mGluR2 in HEK293 background was glutamate starved overnight in media without glutamine (GIBCO MEM 12360), containing 10% FBS, 1% penicillin streptomycin.
# On the day of the assay, media was removed, cells washed with PBS, cells harvested and pelleted by centrifugation. Cell pellets were resuspended in stimulation buffer without forskolin and counted. A solution of 1.25×10^6 cells/ml was prepared and dispensed to plates using a Combi liquid handler (Thermo). A standard curve was created using a top concentration of cAMP of 1 μM in the stimulation buffer, 1:3 dilutions over 14 points in the absence of cells. Plates were read by time-resolved fluorescence at […] and a ratio was calculated via in house software, (665 nM/618 nM)*10^4. In house software converted the fluorescence value ratios to units of cAMP concentration, which is then used to calculate % inhibition for each test compound.
# Compounds were added to white, standard volume 384 non-binding surface plates (Corning 3574). Cells were resuspended in stimulation buffer consisting of Hanks Balanced Salt Solution (14175-095) pH 7.0, 20 mM HEPES, 2.0 mM CaCl2, 5.0 mM MgCl2, and 1 mM IBMX (Sigma 15879), 1 μM forskolin, and 1 μM LY-341495, for 30 minutes. Buffer without forskolin was used as a negative control. Solutions of D2 and cryptate detection reagents from the CISBIO dynamic cAMP kit (62AM4PEJ) were diluted 1:40 in lysis buffer. Lysis buffer consisted of 50 mM Phosphate Buffer pH 7.0, 800 mM Potassium Fluoride, 0.2% BSA, and 1.0% Triton. Assay reaction was terminated by addition of detection reagents in lysis buffer. One hour later, plates were read on a PE Viewlux. Data was extracted, and concentration response curves generated by fitting the data to a standard 4 parameter logistic equation from which EC50 values were determined See table 1: A: <10 nM; B: 10-100 nM; C: 100-1000 nM; D: 1000-10000 nM.
# Chain of human mGluR2 (Q14416 19-872): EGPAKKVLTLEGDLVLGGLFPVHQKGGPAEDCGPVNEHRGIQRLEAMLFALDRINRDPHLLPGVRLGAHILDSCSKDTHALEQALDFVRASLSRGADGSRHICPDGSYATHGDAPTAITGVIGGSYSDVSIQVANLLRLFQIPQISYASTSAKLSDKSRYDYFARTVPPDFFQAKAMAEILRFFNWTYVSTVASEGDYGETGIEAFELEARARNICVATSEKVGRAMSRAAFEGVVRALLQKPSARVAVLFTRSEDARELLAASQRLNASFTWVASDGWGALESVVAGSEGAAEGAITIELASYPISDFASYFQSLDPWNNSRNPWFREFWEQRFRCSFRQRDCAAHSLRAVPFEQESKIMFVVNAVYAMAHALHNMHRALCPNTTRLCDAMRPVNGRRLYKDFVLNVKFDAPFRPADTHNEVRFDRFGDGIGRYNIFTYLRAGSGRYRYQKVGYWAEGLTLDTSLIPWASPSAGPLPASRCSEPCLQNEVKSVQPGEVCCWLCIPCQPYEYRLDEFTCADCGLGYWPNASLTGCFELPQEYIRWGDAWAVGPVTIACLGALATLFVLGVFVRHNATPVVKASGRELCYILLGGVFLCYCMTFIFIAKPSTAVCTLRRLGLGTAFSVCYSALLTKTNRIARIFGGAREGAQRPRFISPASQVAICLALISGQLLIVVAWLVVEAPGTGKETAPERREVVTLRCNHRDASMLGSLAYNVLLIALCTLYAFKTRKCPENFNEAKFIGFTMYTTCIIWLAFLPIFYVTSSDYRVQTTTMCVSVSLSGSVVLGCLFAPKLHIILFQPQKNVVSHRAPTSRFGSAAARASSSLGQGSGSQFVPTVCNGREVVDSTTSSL
row,EC50,SMILES
1,38 nM,"COc1cccc(C2CCN(c3cnn4c(CC5CC5)nnc4c3Cl)CC2)c1 [Example 28, 8-Chloro-3-(cyclopropylmethyl)-7-(4-(3-methoxyphenyl)piperidin-1-yl)-[1,2,4]triazolo[4,3-b]pyridazine]"
2,36 nM,"FC(F)(F)c1ccccc1C1CCN(c2cnn3c(CC4CC4)nnc3c2Cl)CC1 [Example 65, 8-Chloro-3-(cyclopropylmethyl)-7-(4-(2-(trifluoromethyl)phenyl)piperidin-1-yl)-[1,2,4]triazolo[4,3-b]pyridazine]"
3,145 nM,"CC(C)(C)Cc1nnc2c(Cl)c(N3CCC(c4ccc(F)cc4)CC3)cnn12 [Example 18, 8-Chloro-7-(4-(4-fluorophenyl)piperidin-1-yl)-3-neopentyl-[1,2,4]triazolo[4,3-b]pyridazine]"
4,8 nM,"Fc1cc(OC(F)F)c(C2CCN(c3cnn4c(CC5CC5)nnc4c3Cl)CC2)cc1F [Example 52, 8-Chloro-3-(cyclopropylmethyl)-7-(4-(2-(difluoromethoxy)-4,5-difluorophenyl)piperidin-1-yl)-[1,2,4]triazolo[4,3-b]pyridazine]"
5,145 nM,"Clc1c(N2CCC3(C=Cc4ccccc43)CC2)cnn2c(CC3CC3)nnc12 [Example 20, 8-Chloro-3-(cyclopropylmethyl)-7-(spiro[indene-1,4′-piperidin]-1′-yl)-[1,2,4]triazolo[4,3-b]pyridazine]"
6,10 nM,"COc1cc(OC)nc(C2CCN(c3cnn4c(CC(F)(F)F)nnc4c3Cl)CC2)n1 [Example 43, 8-Chloro-7-(4-(4,6-dimethoxypyrimidin-2-yl)piperidin-1-yl)-3-(2,2,2-trifluoroethyl)-[1,2,4]triazolo[4,3-b]pyridazine]"
7,438 nM,"Fc1ccc(C2CCN(c3ncn4c(CC(F)(F)F)nnc4c3Cl)CC2)cc1 [Example 69, 8-Chloro-7-(4-(4-fluorophenyl)piperidin-1-yl)-3-(2,2,2-trifluoroethyl)-[1,2,4]triazolo[4,3-c]pyrimidine]"
8,20 nM,"Fc1ccccc1C1CCN(c2cnn3c(CC(F)(F)F)nnc3c2Cl)CC1 [Example 25, 8-Chloro-7-(4-(2-fluorophenyl)piperidin-1-yl)-3-(2,2,2-trifluoroethyl)-[1,2,4]triazolo[4,3-b]pyridazine]"
9,45 nM,"Clc1ccccc1C1CCN(c2cnn3c(CC4CC4)nnc3c2Cl)CC1 [Example 44, 8-Chloro-7-(4-(2-chlorophenyl)piperidin-1-yl)-3-(cyclopropylmethyl)-[1,2,4]triazolo[4,3-b]pyridazine]"
10,154 nM,"Clc1cccc(C2CCN(c3cnn4c(CC5CC5)nnc4c3Cl)CC2)c1Cl [Example 46, 8-Chloro-3-(cyclopropylmethyl)-7-(4-(2,3-dichlorophenyl)piperidin-1-yl)-[1,2,4]triazolo[4,3-b]pyridazine]"
11,0.4 nM,"COc1c(F)ccc(F)c1C1CCN(c2cnn3c(CC(F)(F)F)nnc3c2C(F)(F)F)CC1 [Example 81, 7-(4-(3,6-Difluoro-2-methoxyphenyl)piperidin-1-yl)-3-(2,2,2-trifluoroethyl)-8-(trifluoromethyl)-[1,2,4]triazolo[4,3-b]pyridazine]"
12,23 nM,"FC(F)(F)Cc1nnc2c(Cl)c(N3CCC(c4ccccc4C(F)(F)F)CC3)cnn12 [Example 66, 8-Chloro-3-(2,2,2-trifluoroethyl)-7-(4-(2-(trifluoromethyl)phenyl)piperidin-1-yl)-[1,2,4]triazolo[4,3-b]pyridazine]"
13,614 nM,"Fc1ccc(N2CCN(c3cnn4c(CC5CC5)nnc4c3Cl)CC2)cc1 [Example 19, 8-Chloro-3-(cyclopropylmethyl)-7-(4-(4-fluorophenyl)piperazin-1-yl)-[1,2,4]triazolo[4,3-b]pyridazine]"
14,10 nM,"COc1ccccc1[C@@H]1C[C@H]1CNc1cnn2c(CC(F)(F)F)nnc2c1C(F)(F)F (relative stereo) [Example 85, Trans-N-((2-(2-methoxyphenyl)cyclopropyl)methyl)-3-(2,2,2-trifluoroethyl)-8-(trifluoromethyl)-[1,2,4]triazolo[4,3-b]pyridazin-7-amine]"
